Experimental data: patent EP0475531A1, “Benzoic acid phenylester compounds and elastase inhibiting compositions containing the same” (Asahi Kasei Kogyo Kabushiki Kaisha, priority 1990, dated 1992)

Target: T1, human leukocyte elastase (Homo sapiens, UniProt P08246)
T1 sequence (P08246 30-267): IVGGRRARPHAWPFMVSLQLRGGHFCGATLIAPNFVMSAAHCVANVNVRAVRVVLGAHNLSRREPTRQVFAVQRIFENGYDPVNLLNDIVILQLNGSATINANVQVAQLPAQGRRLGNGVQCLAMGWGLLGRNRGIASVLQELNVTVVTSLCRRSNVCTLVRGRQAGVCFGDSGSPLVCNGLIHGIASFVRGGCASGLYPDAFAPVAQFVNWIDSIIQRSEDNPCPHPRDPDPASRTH
Assay: in vitro human leukocyte elastase inhibiting activity (fluorogenic substrate, method of JP-A-2-101017 with slight modification)
Format: biochemical
Conditions: 50% inhibitory concentration; substrate methoxysuccinyl-Ala-Ala-Pro-Val-7-amido-4-methylcoumarin; 0.2 M Tris-hydrochloride buffer (0.02 M CaCl2, 0.005% Triton X-100), pH 7.2; compound and enzyme incubated at 25°C for 20 minutes; read-out: IC50
Procedure: Thus, methoxysuccinyl-Ala-Ala-Pro-Val-7-amido-4-methylcoumarin was used as a substrate for human leukocyte elastase and the 50% inhibitory concentration (IC₅₀) was measured. The enzymatic reaction was carried out in 0.2 M Tris-hydrochloride buffer (containing 0.02 M CaCl₂ and 0.005% Triton X-100) at pH 7.2. Each mixture of test compound solution and the enzyme solution was incubated at 25°C for 20 minutes.

In order of falling IC50:
1. O=C(Oc1cc(Cl)cc(Cl)c1)c1ccc(NS(=O)(=O)c2ccccc2)cc1 [Compound 25, 3,5-dichlorophenyl 4-(benzenesulfonylamino)benzoate]  260 nM
2. O=C(Nc1ccc(C(=O)Oc2cc(Cl)cc(Cl)c2)cc1)OCc1ccccc1 [Compound 34, 3,5-dichlorophenyl 4-(benzyloxycarbonylamino)benzoate]  260 nM
3. CCCCCNC(=O)Nc1ccc(C(=O)Oc2cc(Cl)cc(Cl)c2)cc1 [Compound 30, 3,5-dichlorophenyl 4-(3-pentylureido)benzoate]  190 nM
4. CC(C)C(=O)Nc1ccc(C(=O)Oc2cccc(O)c2[N+](=O)[O-])cc1 [Compound 49, 5-hydroxy-6-nitrophenyl 4-(isobutanoylamino)benzoate]  180 nM
5. O=C(C=Cc1ccccc1)Nc1ccc(C(=O)Oc2cc(Cl)cc(Cl)c2)cc1 [Compound 21, 3,5-dichlorophenyl 4-(cinnamoylamino)benzoate]  140 nM
6. O=C(Oc1cc(Cl)cc(Cl)c1)c1ccc(N2C(=O)CCC2=O)cc1 [Compound 23, 3,5-dichlorophenyl 4-(succinimidyl)benzoate]  140 nM
7. CCCCCCCC(=O)Nc1ccc(C(=O)Oc2cc(Cl)cc(Cl)c2)cc1 [Compound 6, 3,5-dichlorophenyl 4-(octanoylamino)benzoate]  110 nM
8. CS(=O)(=O)Nc1ccc(C(=O)Oc2cc(Cl)cc(Cl)c2)cc1 [Compound 24, 3,5-dichlorophenyl 4-(methanesulfonylamino)benzoate]  98 nM
9. CC(C)CC(=O)Nc1ccc(C(=O)Oc2cc(Cl)cc(Cl)c2)cc1 [Compound 19, 3,5-dichlorophenyl 4-(3-methylbutanoylamino)benzoate]  96 nM
10. CC(S)C(=O)Nc1ccc(C(=O)Oc2cc(Cl)cc(Cl)c2)cc1 (stereo not drawn) [Compound 39, 3,5-dichlorophenyl 4-(2-mercaptopropanoylamino)benzoate]  96 nM
11. O=C(Cc1cccs1)Nc1ccc(C(=O)Oc2cc(Cl)cc(Cl)c2)cc1 [Compound 37, 3,5-dichlorophenyl 4-(2-thienylacetylamino)benzoate]  79 nM
12. O=C(Oc1cc(Cl)cc(Cl)c1)c1ccc(NC(=O)C(F)(F)F)cc1 [Compound 11, 3,5-dichlorophenyl 4-(trifluoroacetylamino)benzoate]  67 nM
13. CNC(=O)Nc1ccc(C(=O)Oc2cc(Cl)cc(Cl)c2)cc1 [Compound 26, 3,5-dichlorophenyl 4-(3-methylureido)benzoate]  47 nM
14. CC(C)(CC(=O)Nc1ccc(C(=O)Oc2cc(Cl)cc(Cl)c2)cc1)C(=O)O [Compound 41, 3,5-dichlorophenyl 4-(3,3-dimethylsuccinylamino)benzoate]  47 nM
15. O=C(Nc1ccc(C(=O)Oc2cc(Cl)cc(Cl)c2)cc1)OCCO [Compound 35, 3,5-dichlorophenyl 4-(2-hydroxyethoxycarbonylamino)benzoate]  38 nM
16. CC1(C(=O)Nc2ccc(C(=O)Oc3cc(Cl)cc(Cl)c3)cc2)CC1 [Compound 1, 3,5-dichlorophenyl 4-(1-methylcyclopropanecarbonylamino)benzoate]  37 nM
17. CCCCCC(=O)Nc1ccc(C(=O)Oc2cc(Cl)cc(Cl)c2)cc1 [Compound 5, 3,5-dichlorophenyl 4-(hexanoylamino)benzoate]  37 nM
18. CC(=O)OC(=O)Nc1ccc(C(=O)Oc2cc(Cl)cc(Cl)c2)cc1 [Compound 36, 3,5-dichlorophenyl 4-(acetoxycarbonylamino)benzoate]  31 nM
19. O=C(Oc1cc(Cl)cc(Cl)c1)c1ccc(NC(=O)C(Cl)(Cl)Cl)cc1 [Compound 10, 3,5-dichlorophenyl 4-(trichloroacetylamino)benzoate]  28 nM
20. COC(=O)Nc1ccc(C(=O)Oc2cc(Cl)cc(Cl)c2)cc1 [Compound 33, 3,5-dichlorophenyl 4-(methoxycarbonylamino)benzoate]  26 nM
21. CCCCC(=O)Nc1ccc(C(=O)Oc2cc(Cl)cc(Cl)c2)cc1 [Compound 4, 3,5-dichlorophenyl 4-(pentanoylamino)benzoate]  23 nM
22. O=C(O)CCC(=O)Nc1ccc(C(=O)Oc2cc(Cl)cc(Cl)c2)cc1 [Compound 22, 3,5-dichlorophenyl 4-(succinylamino)benzoate]  23 nM
23. CCNC(=O)Nc1ccc(C(=O)Oc2cc(Cl)cc(Cl)c2)cc1 [Compound 27, 3,5-dichlorophenyl 4-(3-ethylureido)benzoate]  21 nM
24. CCCCNC(=O)Nc1ccc(C(=O)Oc2cc(Cl)cc(Cl)c2)cc1 [Compound 29, 3,5-dichlorophenyl 4-(3-butylureido)benzoate]  20 nM
25. CSC(C)C(=O)Nc1ccc(C(=O)Oc2cc(Cl)cc(Cl)c2)cc1 (stereo not drawn) [Compound 38, 3,5-dichlorophenyl 4-(2-methylthiopropanoylamino)benzoate]  18 nM
26. O=C(Oc1cc(Cl)cc(Cl)c1)c1ccc(NC(=O)C2CCCCC2C(=O)O)cc1 (stereo not drawn) [Compound 44, 3,5-dichlorophenyl 4-(2-hydroxycarbonylcyclohexanecarbonylamino)benzoate]  18 nM
27. CC(C)(CCl)C(=O)Nc1ccc(C(=O)Oc2cc(Cl)cc(Cl)c2)cc1 [Compound 45, 3,5-dichlorophenyl 4-(3-chloro-2,2-dimethylpropanoylamino)benzoate]  18 nM
28. CCCNC(=O)Nc1ccc(C(=O)Oc2cc(Cl)cc(Cl)c2)cc1 [Compound 28, 3,5-dichlorophenyl 4-(3-propylureido)benzoate]  16 nM
29. CC(C)C(=O)Nc1ccc(C(=O)Oc2ccccc2[N+](=O)[O-])cc1 [Compound 48, 6-nitrophenyl 4-(isobutanoylamino)benzoate]  16 nM
30. CC(C)NC(=O)Nc1ccc(C(=O)Oc2cc(Cl)cc(Cl)c2)cc1 [Compound 31, 3,5-dichlorophenyl 4-(3-isopropylureido)benzoate]  13 nM
31. CC(C(=O)Nc1ccc(C(=O)Oc2cc(Cl)cc(Cl)c2)cc1)c1ccccc1 (stereo not drawn) [Compound 20, 3,5-dichlorophenyl 4-(2-methyl-2-phenylacetylamino)benzoate]  12 nM
32. O=C(Oc1cc(Cl)cc(Cl)c1)c1ccc(NC(=O)C(F)(F)C(F)(F)F)cc1 [Compound 12, 3,5-dichlorophenyl 4-(pentafluoropropanoylamino)benzoate]  10 nM
33. O=C(Oc1cc(Cl)cc(Cl)c1)c1ccc(NC(=O)C2CCCCC2)cc1 [Compound 18, 3,5-dichlorophenyl 4-(cyclohexanecarbonylamino)benzoate]  10 nM
34. O=C(Oc1cc(Cl)cc(Cl)c1)c1ccc(NC(=O)C2CCC2)cc1 [Compound 16, 3,5-dichlorophenyl 4-(cyclobutanecarbonylamino)benzoate]  9.2 nM
35. CC=CC(=O)Nc1ccc(C(=O)Oc2cc(Cl)cc(Cl)c2)cc1 [Compound 13, 3,5-dichlorophenyl 4-(2-butenoylamino)benzoate]  9 nM
36. O=C(Oc1cc(Cl)cc(Cl)c1)c1ccc(NC(=O)C2CC2)cc1 [Compound 15, 3,5-dichlorophenyl 4-(cyclopropanecarbonylamino)benzoate]  7.7 nM
37. O=C(O)CCCC(=O)Nc1ccc(C(=O)Oc2cc(Cl)cc(Cl)c2)cc1 [Compound 43, 3,5-dichlorophenyl 4-(glutarylamino)benzoate]  7.6 nM
38. CCC(=O)Nc1ccc(C(=O)Oc2cc(Cl)cc(Cl)c2)cc1 [Compound 2, 3,5-dichlorophenyl 4-(propanoylamino)benzoate]  7 nM
39. CC(C)(CC#N)C(=O)Nc1ccc(C(=O)Oc2cc(Cl)cc(Cl)c2)cc1 [Compound 46, 3,5-dichlorophenyl 4-(3-cyano-2,2-dimethylpropanoylamino)benzoate]  6.7 nM
40. CC(C)(C)C(=O)Nc1ccc(C(=O)Oc2cc(Cl)cc(Cl)c2)cc1 [Compound 8, 3,5-dichlorophenyl 4-(pivaloylamino)benzoate]  6.4 nM
41. CN(C)C(=O)Nc1ccc(C(=O)Oc2cc(Cl)cc(Cl)c2)cc1 [Compound 32, 3,5-dichlorophenyl 4-(3,3-dimethylureido)benzoate]  5.9 nM
42. O=C(Cc1ccccc1)Nc1ccc(C(=O)Oc2cc(Cl)cc(Cl)c2)cc1 [Compound 9, 3,5-dichlorophenyl 4-(phenylacetylamino)benzoate]  5.3 nM
43. CC(C)C(=O)Nc1ccc(C(=O)Oc2cc(Cl)cc(Cl)c2)cc1 [Compound 7, 3,5-dichlorophenyl 4-(isobutanoylamino)benzoate]  4.1 nM
44. CC(C)(C)OC(=O)Nc1ccc(C(=O)Oc2cc(C=O)ccc2[N+](=O)[O-])cc1 [Compound 47, 3-formyl-6-nitrophenyl 4-(tert-butoxycarbonylamino)benzoate]  3.8 nM
45. C=C(C)C(=O)Nc1ccc(C(=O)Oc2cc(Cl)cc(Cl)c2)cc1 [Compound 14, 3,5-dichlorophenyl 4-(2-methylpropenoylamino)benzoate]  3.5 nM
46. CC(C)(C(=O)O)C(=O)Nc1ccc(C(=O)Oc2cc(Cl)cc(Cl)c2)cc1 [Compound 40, 3,5-dichlorophenyl 4-(2,2-dimethylmalonylamino)benzoate]  3.4 nM
47. CC(C(=O)O)C(C)C(=O)Nc1ccc(C(=O)Oc2cc(Cl)cc(Cl)c2)cc1 (stereo not drawn) [Compound 42, 3,5-dichlorophenyl 4-(meso-2,3-dimethylsuccinylamino)benzoate]  2.1 nM
48. CCCC(=O)Nc1ccc(C(=O)Oc2cc(Cl)cc(Cl)c2)cc1 [Compound 3, 3,5-dichlorophenyl 4-(butanoylamino)benzoate]  1.9 nM
